Read-outs that look alike come from different tables or passages of the source.
Key:
Pf Dd2 = Pf Dd2 growth inhibition assay; type: cell-based, Plasmodium falciparum
Source text: (§1) EC50 assays were run as described in Int'l Pub Nos. WO 2015070204, WO 2018175385, and Kato, N, et al. Nature 538 (2016): 344-349, which are hereby incorporated by reference in its entirety. The inhibition of the aminoacylation activity of Pf (Plasmodium falciparum), Pv (Plasmodium vivax), Hs (Human) and Pf-Mut (L550V) cFRS enzymes by Compound 1 are illustrated in FIG. 1.

PfcFRS = target: T1, PfcFRS (Plasmodium falciparum, UniProt Q8I246); test: malachite green-based aminoacylation assay, PfcFRS; type: biochemical
T1 sequence (Q8I246 1-575): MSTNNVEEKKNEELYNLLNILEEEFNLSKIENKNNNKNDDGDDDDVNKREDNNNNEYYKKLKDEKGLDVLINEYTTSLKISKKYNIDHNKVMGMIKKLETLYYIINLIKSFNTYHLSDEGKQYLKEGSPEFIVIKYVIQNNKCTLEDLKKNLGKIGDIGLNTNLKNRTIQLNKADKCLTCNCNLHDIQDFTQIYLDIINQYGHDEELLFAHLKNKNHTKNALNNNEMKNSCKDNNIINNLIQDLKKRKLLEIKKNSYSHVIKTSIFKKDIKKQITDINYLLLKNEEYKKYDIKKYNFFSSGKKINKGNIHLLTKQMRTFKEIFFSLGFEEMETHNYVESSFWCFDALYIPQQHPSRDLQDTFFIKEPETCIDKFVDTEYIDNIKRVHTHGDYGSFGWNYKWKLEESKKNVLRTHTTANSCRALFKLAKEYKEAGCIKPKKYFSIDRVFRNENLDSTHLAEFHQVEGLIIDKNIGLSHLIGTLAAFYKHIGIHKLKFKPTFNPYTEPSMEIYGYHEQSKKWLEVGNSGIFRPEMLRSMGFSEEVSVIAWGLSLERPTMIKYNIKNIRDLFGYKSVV
T1 sequence (Q8IIW2 1-623 partner): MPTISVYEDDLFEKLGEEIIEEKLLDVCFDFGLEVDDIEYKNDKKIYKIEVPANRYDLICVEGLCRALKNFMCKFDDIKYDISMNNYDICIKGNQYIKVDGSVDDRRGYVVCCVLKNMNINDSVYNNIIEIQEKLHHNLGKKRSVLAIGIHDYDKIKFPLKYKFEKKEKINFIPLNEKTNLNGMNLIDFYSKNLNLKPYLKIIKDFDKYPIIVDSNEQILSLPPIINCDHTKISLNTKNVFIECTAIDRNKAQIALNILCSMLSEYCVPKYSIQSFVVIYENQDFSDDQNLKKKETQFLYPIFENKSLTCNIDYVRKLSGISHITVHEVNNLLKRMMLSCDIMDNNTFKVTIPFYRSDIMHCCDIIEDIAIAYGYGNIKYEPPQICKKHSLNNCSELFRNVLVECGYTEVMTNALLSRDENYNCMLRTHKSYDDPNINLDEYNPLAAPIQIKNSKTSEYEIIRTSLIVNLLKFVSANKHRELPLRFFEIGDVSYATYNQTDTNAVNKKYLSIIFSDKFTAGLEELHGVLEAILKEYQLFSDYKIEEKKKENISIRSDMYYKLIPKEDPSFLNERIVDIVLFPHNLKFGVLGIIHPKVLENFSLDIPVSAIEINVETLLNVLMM
Source text: as §1
(§2) The enzymatic activity of purified heterodimeric PfcFRS using malachite green-based aminoacylation assays with substrates L-Phe and ATP was also measured as described in Cestari, I. et al., J Biomol. Screen. 18 (2013): 490-497 and Kato, N, et al. Nature 538 (2016): 344-349, which are hereby incorporated by reference in its entirety. […] Enzymatic reactions (50 μl total volume) were performed in clear, flat-bottomed, 96-well plates (Costar 96-well standard microplates). The reaction mixture was incubated for 2 h at 37° C. The reaction was stopped by adding 12.5 μl of malachite green solution to the reaction mixture and levels of inorganic phosphate (Pi) were detected after incubation of 5 min at room temperature. Absorbance was the measured at 620 nm using a Spectramax M2 (Molecular Devices). Reactions without FRS enzyme were performed as background controls, values of which were subtracted from the reactions with enzyme. Compound 1 was added to the aminoacylation assay reaction buffer in varying concentrations ranging from 0.1 nM to 10,000 nM.
Data sets were then globally fitted to the appropriate model (with equations (1) and (2) used for competitive and mixed inhibition respectively).
where v is the reaction rate, Km is the Michaelis-Menten constant, Vmax is the maximum reaction velocity, Ki is the inhibitor constant, [I] is the concentration of inhibitor (Compound 1) and [S] is the concentration of substrate.
The data is shown for three replicates as the mean±SD in FIGS. 2A and 2B. […] Specifically, enzyme activity was evaluated at a fixed saturating concentration of one substrate (L-Phe or ATP) and varying concentrations the other at different inhibitor concentrations. The experimental data were fit to the Michaelis-Menten equation that produced Lineweaver-Burk plots as described above. […] The mode of inhibition was then analyzed using ATP as the variable-concentration substrate (FIG. 2B). The data were then fit to the modified high-substrate inhibition Michaelis-Menten equation that led to the corresponding double-reciprocal plot and its inhibition profile.

[1] = target: T2, Pv (Plasmodium vivax) cFRS (Plasmodium vivax, UniProt A5K9S0); test: malachite green-based aminoacylation assay, PvcFRS; type: biochemical; conditions: aminoacylation activity
T2 construct: Full-length PvcFRS was also purified according to the same protocol; His6 (encoded by vector pETM11); made in house; host or cells: E. coli strain B834
Source text: as §1
as §2, with “Compound 1 was added to the aminoacylation assay reaction buffer in varying concentrations ranging from 0.1 nM to 10,000 nM.” left out

T2 sequence (A5K9S0 whole entry): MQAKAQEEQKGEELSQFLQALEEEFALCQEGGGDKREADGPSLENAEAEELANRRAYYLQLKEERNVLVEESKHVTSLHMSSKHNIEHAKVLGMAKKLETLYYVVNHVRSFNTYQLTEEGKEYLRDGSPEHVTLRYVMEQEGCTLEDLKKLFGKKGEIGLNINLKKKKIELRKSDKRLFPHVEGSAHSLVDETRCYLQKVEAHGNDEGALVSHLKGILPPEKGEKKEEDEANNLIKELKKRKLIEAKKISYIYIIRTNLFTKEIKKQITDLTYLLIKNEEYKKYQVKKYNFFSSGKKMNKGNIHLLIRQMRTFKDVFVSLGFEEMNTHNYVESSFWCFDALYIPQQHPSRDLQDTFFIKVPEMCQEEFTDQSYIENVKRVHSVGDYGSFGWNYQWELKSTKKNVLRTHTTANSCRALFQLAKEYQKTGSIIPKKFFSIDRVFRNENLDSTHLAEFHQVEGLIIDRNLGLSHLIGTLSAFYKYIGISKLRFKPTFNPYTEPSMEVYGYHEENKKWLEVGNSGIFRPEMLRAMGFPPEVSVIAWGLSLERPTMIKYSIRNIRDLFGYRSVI
T2 sequence (A5K464 whole entry, further chain): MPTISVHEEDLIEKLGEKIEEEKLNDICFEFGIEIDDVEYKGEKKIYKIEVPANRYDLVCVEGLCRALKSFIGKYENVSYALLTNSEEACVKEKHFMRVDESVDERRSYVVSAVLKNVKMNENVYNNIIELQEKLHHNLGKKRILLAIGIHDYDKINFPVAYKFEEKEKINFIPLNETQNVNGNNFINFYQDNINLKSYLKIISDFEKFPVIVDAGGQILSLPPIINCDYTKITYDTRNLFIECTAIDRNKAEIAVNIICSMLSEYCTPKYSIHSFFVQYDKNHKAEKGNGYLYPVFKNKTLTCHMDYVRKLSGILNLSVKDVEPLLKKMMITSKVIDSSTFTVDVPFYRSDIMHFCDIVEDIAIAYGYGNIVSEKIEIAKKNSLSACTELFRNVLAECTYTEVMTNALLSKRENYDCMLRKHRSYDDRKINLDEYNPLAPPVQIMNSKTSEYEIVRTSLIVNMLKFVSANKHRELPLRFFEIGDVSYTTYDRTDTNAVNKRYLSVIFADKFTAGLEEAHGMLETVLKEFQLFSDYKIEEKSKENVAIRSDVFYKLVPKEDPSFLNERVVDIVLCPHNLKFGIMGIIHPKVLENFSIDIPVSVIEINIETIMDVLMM

Question: With COC[C@@H]1[C@H](c2ccc(C#Cc3ccccc3)cc2)[C@@H]2CN(C(=O)Nc3ccc(OC4CC4)cc3)C[C@@H](O)[C@@H](O)CN12 [Compound 1, (3S,4R,8R,9R,10S)—N-(4-cyclopropoxyphenyl)-3,4-dihydroxy-10-(methoxymethyl)-9-(4-(phenylethynyl)phenyl)-1,6-diazabicyclo[6.2.0]decane-6-carboxamide] as the molecule, how does the EC50 (Pf Dd2; Plasmodium falciparum, DD2, read-out: PfDd2 growth inhibition EC50) read?
Answer: < 1 nM

Question: And the “efficacy by EC50 Pf Dd2 growth inhibition relative to comparator” value (Pf Dd2; versus (3S,4R,8R,9S,10S)-10-((dimethylamino)methyl) analogue)?
Answer: three fold better efficacy

Question: And the “mode of inhibition with respect to ATP” value (PfcFRS; Lineweaver-Burk analysis)?
Answer: non-competitive inhibitor

Question: What about the “mode of inhibition with respect to L-Phe” value (PfcFRS; Lineweaver-Burk analysis) of the same molecule?
Answer: competitive inhibitor

Question: What about the IC50 (PfcFRS; aminoacylation activity, read-out: cFRS IC50, Pf) of the same molecule?
Answer: 12 nM

Question: And the Ki (PfcFRS; global competitive inhibition model, saturating ATP, varying L-Phe, read-out: Ki with respect to L-Phe)?
Answer: 6 ± 2 nM

Question: What about the Ki (PfcFRS; non-competitive inhibition model, saturating L-Phe, varying ATP, read-out: Ki with respect to ATP) of the same molecule?
Answer: 10 ± 5 nM

Question: And the IC50 [1]?
Answer: 25 nM
